{"source": "patent US12150920B2", "about": "“Topical pharmaceutical composition in the form of aqueous gel comprising at least amitriptyline” (AlgoTherapeutix, priority 2020, dated 2024)", "assay": "Ex vivo percutaneous absorption of amitriptyline on human skin samples in a Frantz cell", "type": "in vitro ADME", "conditions": "topical application of compositions A and B", "protocol": "Comparative ex vivo study of the percutaneous absorption of amitriptyline in a formulation A in the form of an aqueous gel (invention) and a formulation B in the form of cream (comparative). Each of compositions A and B was applied to distinct samples of human skin. For each composition, the experiment was repeated 3 times with 3 skin samples from 3 different donors, giving 9 samples. The skin samples are placed in a Frantz cell and heated to a surface temperature of 32° C.±1° C. Composition A or B is spread homogenously with a spatula onto each skin sample at a rate of 10 mg per cell, corresponding to 5 mg/cm^2 skin. The skin samples are rinsed 16 hours after application. Each skin sample was placed using tweezers onto absorbent paper (dermis side down). The stratum corneum was removed using adhesive strips. After the removal of the stratum corneum the sample was perforated. The epidermis is then separated from the dermis. Each of them is placed in separate vials. Different samples were then extracted."}
{"molecule": "CN(C)CCC=C1c2ccccc2CCc2ccccc21", "note": "[amitriptyline]", "values": [{"measurement": "Systemic passage of amitriptyline", "result": "less than 0.10 % of the administered dose"}]}
